# What was measured:
# [1] = system: spirochetes of B. burgdorferi; experiment: Susceptibility of spirochetes, dark-field microscopy; format: cell-based, Borrelia burgdorferi B31; conditions: most effective concentration (doxycycline: commonly tested concentration, 250 μg/ml), up to 7 days
# Protocol: (§1) To determine what compound/mixture will inhibit visible growth of B. burgdorferi and B. garinii, a new and accepted micro-dilution method was used according to Sapi et al. Infection and Drug Resistance 2011. Briefly, sterile 1.5 ml test tightly caps screwed tubes containing 1 ml BSK-H medium, supplemented with the test compound of interest were inoculated with 2×10^6 CFU/ml of the homogenous bacterial suspension. The tubes were then incubated at 33° C. and growth was monitored at regular intervals for up to 72 h. The whole experiment was repeated three times for each strain and each concentration. Control cultures were treated with ethanol (i.e. 0.1-0.4 vol/vol) alone. For doxycycline, the final used concentration was 250 μg/m1. Cell growth was assessed by a bacterial Petroff-Hausser counting chamber after the 0 hour, 24 hrs, 48 hrs, 72 hrs and 7 days of incubation using dark field microscopy (direct cell counting), as a standard procedure.
# [2] = system: spirochetes of B. garinii; experiment: as above; format: cell-based, Borrelia garinii CIP103362; conditions: most effective concentration (doxycycline: commonly tested concentration, 250 μg/ml), up to 7 days
# Protocol: as §1
# [3] = system: rounded forms of B. burgdorferi; experiment: Susceptibility of rounded forms, SYTO 9 / propidium iodide fluorescent microscopy; format: cell-based, Borrelia burgdorferi B31; conditions: most effective concentration, up to 7 days
# Protocol: (§2) To determine what compound/mixture will have the bactericidal effect a fluorescence method was used according to Sapi et al. Infection and Drug Resistance 2011. Briefly, 2×10^6 CFU/ml of the homogenous bacterial suspension was inoculated into each sterile 1.5 ml test tightly caps screwed tubes containing 1 ml BSK-H medium, supplemented with the test compound/mixture of interest. Control cultures were treated with ethanol (i.e. 0.1-0.4 vol/vol) alone. For doxycycline, as a positive control, the final used concentration was 250 μg/m1. The tubes were then incubated at 33° C. and viability was monitored at regular intervals for up to 72 h. The whole experiment was repeated three times for each strain and each concentration. The susceptibility of spirochetes and round body forms to the test compound was then assessed after 24 h, 48 h, 72 h and 7 days by LIVE/DEAD® BacLight™ Bacterial Viability Assay using fluorescent microscopy, were the ratio of live (green) and dead (red) B. burgdorferi and B. garinii morphological forms were calculated.
# [4] = system: rounded forms of B. garinii; experiment: as above; format: cell-based, Borrelia garinii CIP103362; conditions: most effective concentration, up to 7 days
# Protocol: as §2
# [5] = system: biofilm of B. burgdorferi; experiment: Biofilm on extracellular matrix proteins, crystal violet staining; format: cell-based, Borrelia burgdorferi B31; conditions: 5 extracellular matrix proteins, most effective concentration
# Protocol: (§3) Qualitative effect of the test compounds against biofilm-like colonies of B. burgdorferi and B. garinii was evaluated using commonly used and well accepted crystal violet (CV) staining method, according to protocol provided by Sapi et al. Infection and Drug Resistance 2011. Briefly, for curable effect, 1×10^7 CFU/ml from homogeneous cultures of spirochetes were inoculated in extracellular matrix proteins (i.e. matrigel, collagen type I, fibrinogen, hyaluronan, and chondroitin sulfate) coated four-well chambers and incubated for 1 week, respectively. After the 1 week of incubation, biofilm-like colonies were treated with various compounds/mixtures. For preventive effect, 1×10^7 CFU/ml from homogeneous cultures of spirochetes complemented with various compounds/mixtures were inoculated in extracellular matrix proteins (i.e. matrigel, collagen type I, fibrinogen, hyaluronan, and chondroitin sulfate) coated four-well chambers and incubated for 1 week, respectively. Control wells were treated with ethanol (i.e. 0.1-0.4 vol/vol) alone. For doxycycline, as a positive control, the final used concentration was […]. The chambers were then incubated at 33° C. for 72 h. […] The biofilm-like colonies were carefully washed three times with 1×PBS and 1 ml of methanol was added to each well to extract a dye, which was measured at 595 nm wavelength.
# biofilm of B. garinii = experiment: as above; format: cell-based, Borrelia garinii CIP103362; conditions: 5 extracellular matrix proteins, most effective concentration
# Protocol: as §3
smiles,measurement,setting,value
C[C@H]1c2cccc(O)c2C(=O)C2=C(O)[C@]3(O)C(=O)C(C(N)=O)=C(O)[C@@H](N(C)C)[C@@H]3[C@@H](O)[C@@H]21 [doxycycline],decrease of amount of spiral forms,[1],60-75%
same,decrease of amount of spiral forms,[2],60-75%
same,increase of dead of rounded forms,[3],5-10%
same,rounded forms formation generated,[3],about 2 times
same,increase of dead of rounded forms,[4],5-10%
same,rounded forms formation generated,[4],about 2 times
same,biofilm eradicated (curable effect),[5]; 3 days post-treatment,5-40%
same,biofilm formation prevented (preventive effect),[5]; after 7 days,40-60%
same,biofilm eradicated (curable effect),biofilm of B. garinii; 3 days post-treatment,5-40%
same,biofilm formation prevented (preventive effect),biofilm of B. garinii; after 7 days,40-60%

# Reference: patent US20160339057A1, “NOVEL COMPOSITION METHOD OF USING THE SAME FOR THE TREATMENT OF LYME DISEASE” (priority 2014, published 2016)
